The source of these data is patent US20230279020A9, “CARM1 INHIBITORS AND USES THEREOF” (Epizyme, Inc., priority 2013, published 2023).

One may read the IC50 as the concentration that gives 50% inhibition.

Sequence of Human CARM1 (PRMT4) (Q86X55 other isoform, or with tags, fused parts or gaps isoform Q86X55-1): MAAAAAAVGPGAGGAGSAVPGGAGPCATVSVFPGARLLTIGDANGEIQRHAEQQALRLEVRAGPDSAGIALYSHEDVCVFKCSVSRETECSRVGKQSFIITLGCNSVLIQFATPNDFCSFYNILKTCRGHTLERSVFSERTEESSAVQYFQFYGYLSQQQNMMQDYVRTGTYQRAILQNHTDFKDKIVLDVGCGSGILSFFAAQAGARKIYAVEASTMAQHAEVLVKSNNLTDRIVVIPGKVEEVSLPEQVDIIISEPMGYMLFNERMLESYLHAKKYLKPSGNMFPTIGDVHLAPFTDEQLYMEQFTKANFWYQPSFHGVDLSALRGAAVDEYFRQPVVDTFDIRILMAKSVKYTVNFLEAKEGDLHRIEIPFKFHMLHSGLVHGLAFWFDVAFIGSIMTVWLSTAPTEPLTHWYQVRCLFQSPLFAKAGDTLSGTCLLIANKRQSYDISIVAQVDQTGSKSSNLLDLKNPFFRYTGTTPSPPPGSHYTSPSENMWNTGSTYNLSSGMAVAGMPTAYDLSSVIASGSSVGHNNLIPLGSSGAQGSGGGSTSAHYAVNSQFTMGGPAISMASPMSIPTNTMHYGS

This assay has as its target Human CARM1 (PRMT4) (Homo sapiens (Human), UniProt Q86X55). In words: CARM1 enzyme assay on peptide substrate (3H-SAM Flashplate). Particulars: Biochemical potencies, classification codes; read-out: Biochem IC50.
Turning to `CNCC(O)COc1cccc(-c2nc(N[C@@H]3CCOC3)c(C)c(N3CCC4(CN(CC(F)F)C4)C3)n2)c1` (stereo partly drawn) [Example 475-1a], the IC50 is < 0.1 µM.

On to `CNCC(O)COc1cccc(-c2nc(-c3cnc4c(C(=O)OC)cnn4c3)cc(N(C)C3CCOCC3)n2)c1` (stereo not drawn) [Example 482-1a], for which the IC50 is < 0.1 µM.

With `CNCC(O)COc1cccc(-c2nc(-c3cn(S(C)(=O)=O)c4ncncc34)cc(N(C)C3CCOCC3)n2)c1` (stereo not drawn) [Example 483-1a], the IC50 was < 0.1 µM.

For the molecule `CNCC(O)COc1cccc(-c2nc(-c3cn(C)c4ncncc34)cc(N(C)C3CCOCC3)n2)c1` (stereo not drawn) [Example 485-1a], the IC50 was < 0.1 µM.

For `CNC[C@H](O)COc1cccc(-c2nc(-c3cnc4cnccn34)cc(N(C)C3CCOCC3)n2)c1` [Example 486-1a], the IC50 was < 0.1 µM.

As for `CNCC(O)COc1cccc(-c2nc(N(C)c3cncnc3)cc(N(C)C3CCOCC3)n2)c1` (stereo not drawn) [Example 487-1a], the IC50 was < 0.1 µM.

As to `CNC[C@@H](O)COc1cccc(-c2nc(-c3cn(S(C)(=O)=O)c4ncncc34)c(C)c(N(C)C3CCOCC3)n2)c1` [Example 488-1a], the IC50 is < 0.1 µM.

For `CNCC(O)COc1cccc(-c2nc(-c3cnc4ncccn34)cc(N(C)C3CCOCC3)n2)c1` (stereo not drawn) [Example 489-1a], the IC50 was < 0.1 µM.

Regarding `CNCC(O)COc1cccc(-c2nc(-c3cnc4cnccn34)cc(N(C)C3CCOCC3)n2)c1` (stereo not drawn) [Example 490-1a], the IC50 is < 0.1 µM.

Take `CNCC(O)COc1cccc(-c2nc(-c3ncc(C)n3C)cc(N(C)C3CCOCC3)n2)c1` (stereo not drawn) [Example 491-1a]: the IC50 was < 0.1 µM.

`CNCC(O)COc1cc(OC)cc(-c2nc(-c3cnc4cnccn34)cc(N(C)C3CCOCC3)n2)c1` (stereo not drawn) [Example 492-1a]: the IC50 was < 0.1 µM.

Regarding `CNCC(O)COc1cccc(-c2nc(-c3csnc3C)cc(N(C)C3CCOCC3)n2)c1` (stereo not drawn) [Example 493-1a], the IC50 is < 0.1 µM.

In the case of `CNCC(O)COc1cccc(-c2nc(-c3scnc3C)cc(N(C)C3CCOCC3)n2)c1` (stereo not drawn) [Example 495-1a], the IC50 is < 0.1 µM.

For `CNCC(O)COc1cccc(-c2nc(-c3c(C)nn(C(C)C)c3C)cc(N(C)C3CCOCC3)n2)c1` (stereo not drawn) [Example 496-1a], the IC50 was < 0.1 µM.

`CNCC(O)COc1cccc(-c2nc(-c3ccnc(C#N)c3)cc(N(C)C3CCOCC3)n2)c1` (stereo not drawn) [Example 498-1a]: the IC50 was < 0.1 µM.

Turning to `CNCC(O)COc1cccc(-c2nc(-c3ccc(S(C)(=O)=O)cc3)cc(N(C)C3CCOCC3)n2)c1` (stereo not drawn) [Example 499-1a], the IC50 is < 0.1 µM.

Turning to `CNCC(O)COc1cccc(-c2nc(N3CCOCC3)c(F)c(N(C)C3CCOCC3)n2)c1` (stereo not drawn) [Example 500-1a], the IC50 is < 0.1 µM.

For the molecule `CNCC(O)COc1cccc(-c2nc(-c3cn(C)cn3)cc(N(C)C3CCOCC3)n2)c1` (stereo not drawn) [Example 501-1a], the IC50 is < 0.1 µM.

In the case of `CNCC(O)COc1cccc(-c2nc(N3CCN(C)[C@@H](C)C3)cc(N(C)C3CCOCC3)n2)c1` (stereo partly drawn) [Example 502-1a], the IC50 was < 0.1 µM.

Regarding `CNCC(O)COc1cccc(-c2nc(-c3ccnc(C(C)(C)O)c3)cc(N(C)C3CCOCC3)n2)c1` (stereo not drawn) [Example 503-1a], the IC50 was < 0.1 µM.

Turning to `CNCC(O)COc1cccc(-c2nc(-c3c[nH]c4ncncc34)cc(N(C)C3CCOCC3)n2)c1` (stereo not drawn) [Example 504-1a], the IC50 was < 0.1 µM.

With `CC[C@H]1CN(c2cc(N(C)C3CCOCC3)nc(-c3cccc(OCC(O)CNC)c3)n2)CCN1` (stereo partly drawn) [Example 505-1a], the IC50 is < 0.1 µM.

For `CNCC(O)COc1cc(Cl)cc(-c2nc(Nc3cncnc3)c(C)c(N(C)C3CCOCC3)n2)c1` (stereo not drawn) [Example 506-1a], the IC50 is < 0.1 µM.

In the case of `CNC[C@@H](O)COc1cccc(-c2nc(-c3cnc4cnccn34)cc(N(C)C3CCOCC3)n2)c1` [Example 507-1a], the IC50 is < 0.1 µM.

As to `CNCC(O)COc1cc(Cl)cc(-c2nc(C(=O)NCC3CCOCC3)cc(N(C)C3CCOCC3)n2)c1` (stereo not drawn) [Example 508-1a], the IC50 was < 0.1 µM.

On to `CNCC(O)COc1cccc(-c2nc(-c3ccnc(C(=O)NC)c3)cc(N(C)C3CCOCC3)n2)c1` (stereo not drawn) [Example 510-1a], for which the IC50 is < 0.1 µM.

With `CNC[C@@H](O)COc1cccc(-c2nc(-c3cn(S(C)(=O)=O)c4ncncc34)cc(N(C)C3CCOCC3)n2)c1` [Example 511-1a], the IC50 is < 0.1 µM.

On to `CNCC(O)COc1cccc(-c2nc(-c3ccc(N4CCOCC4)nn3)cc(N(C)C3CCOCC3)n2)c1` (stereo not drawn) [Example 512-1a], for which the half-inhibitory concentration (IC50) is < 0.1 µM.

Regarding `CNCC(O)COc1cccc(-c2nc(Nc3ncc(C)cn3)cc(N(C)C3CCOCC3)n2)c1` (stereo not drawn) [Example 513-1a], the IC50 is < 0.1 µM.

Consider `CNCC(O)COc1cccc(-c2nc(-c3cnc4c(C(=O)N(C)C)cnn4c3)cc(N(C)C3CCOCC3)n2)c1` (stereo not drawn) [Example 514-1a], for which the IC50 was < 0.1 µM.

In the case of `CNCC(O)COc1cccc(-c2nc(-c3cnn(CC(C)C)c3)cc(N(C)C3CCOCC3)n2)c1` (stereo not drawn) [Example 516-1a], the IC50 was < 0.1 µM.

As to `CNCC(O)COc1cccc(-c2nc(-c3cnc(C)n3C)cc(N(C)C3CCOCC3)n2)c1` (stereo not drawn) [Example 517-1a], the IC50 is < 0.1 µM.

Turning to `CNCC(O)COc1cccc(-c2nc(-c3nc(C)cn3C)cc(N(C)C3CCOCC3)n2)c1` (stereo not drawn) [Example 519-1a], the IC50 was < 0.1 µM.

Regarding `CNCC(O)COc1cccc(-c2nc(-c3nc(C)c[nH]3)cc(N(C)C3CCOCC3)n2)c1` (stereo not drawn) [Example 521-1a], the IC50 is < 0.1 µM.

Consider `CNCC(O)COc1cc(Cl)cc(-c2nc(-c3ccncc3C3CC3)cc(N(C)C3CCOCC3)n2)c1` (stereo not drawn) [Example 522-1a], for which the IC50 was < 0.1 µM.

As to `CNCC(O)COc1cccc(-c2nc(N3CCO[C@H](CN)C3)cc(N(C)C3CCOCC3)n2)c1` (stereo partly drawn) [Example 524-1a], the IC50 was < 0.1 µM.

`CNCC(O)COc1cccc(-c2nc(-c3cncnc3)cc(N(C)C3CCOCC3)n2)c1` (stereo not drawn) [Example 525-1a]: the IC50 was < 0.1 µM.

As for `CNC[C@@H](O)COc1cccc(-c2nc(-c3c[nH]c4ncncc34)c(C)c(N(C)C3CCOCC3)n2)c1` [Example 526-1a], the IC50 was < 0.1 µM.

For `CNCC(O)COc1cccc(-c2nc(-c3c(C)nn(C)c3C)cc(N(C)C3CCOCC3)n2)c1` (stereo not drawn) [Example 528-1a], the IC50 was < 0.1 µM.

For the molecule `CNCC(O)COc1cccc(-c2nc(-c3cn(C)c(C)n3)cc(N(C)C3CCOCC3)n2)c1` (stereo not drawn) [Example 529-1a], the IC50 is < 0.1 µM.

As for `CNCC(O)COc1cccc(-c2nc(N3CCN(C)CC3)cc(N(C)C3CCOCC3)n2)c1` (stereo not drawn) [Example 531-1a], the half-maximal inhibitory concentration (IC50) was < 0.1 µM.

Turning to `CNCC(O)COc1cccc(-c2nc(-c3cnc4ncnn4c3)cc(N(C)C3CCOCC3)n2)c1` (stereo not drawn) [Example 536-1a], the IC50 is < 0.1 µM.

In the case of `CNCC(O)COc1cccc(-c2nc(-c3ccncc3)c(C)c(N(C)C3CCOCC3)n2)c1` (stereo not drawn) [Example 537-1a], the IC50 is < 0.1 µM.

Take `CNCC(O)COc1cccc(-c2nc(N3CCC[C@H](O)C3)cc(N(C)C3CCOCC3)n2)c1` (stereo partly drawn) [Example 538-1a]: the IC50 was < 0.1 µM.

`CNCC(O)COc1cccc(-c2nc(-c3ccnc(OC)c3)cc(N(C)C3CCOCC3)n2)c1` (stereo not drawn) [Example 541-1a]: the half-maximal inhibitory concentration (IC50) is < 0.1 µM.

For the molecule `CNCC(O)COc1cccc(-c2nc(N(C)C3CCOCC3)cc(-n3cccn3)n2)c1` (stereo not drawn) [Example 542-1a], the IC50 was < 0.1 µM.

For `CNCC(O)COc1cccc(-c2nc(N(C)C3CCOCC3)cc(N3C[C@@H]4C[C@H]3CN4C)n2)c1` (stereo partly drawn) [Example 543-1a], the IC50 is < 0.1 µM.

Take `CNCC(O)COc1cccc(-c2nc(C(C)=O)c(C)c(N(C)C3CCOCC3)n2)c1` (stereo not drawn) [Example 544-1a]: the IC50 was < 0.1 µM.

For `CNCC(O)COc1cccc(-c2nc(C(=O)NCC3CCOCC3)cc(N(C)C3CCOCC3)n2)c1` (stereo not drawn) [Example 548-1a], the IC50 was < 0.1 µM.

For `CNCC(O)COc1cccc(-c2nc(N3CCN(C)C(=O)C3)cc(N(C)C3CCOCC3)n2)c1` (stereo not drawn) [Example 549-1a], the IC50 is < 0.1 µM.

Consider `CNCC(O)COc1cccc(-c2nc(N3CC4(CCNCC4)c4ccccc43)cc(N(C)C3CCOCC3)n2)c1` (stereo not drawn) [Example 559-1a], for which the IC50 is < 0.1 µM.

In the case of `CNCC(O)COc1cccc(-c2nc(N3CCNCC3)c(C)c(N(C)C3CCOCC3)n2)c1` (stereo not drawn) [Example 560-1a], the IC50 was < 0.1 µM.

`CNCC(O)COc1cc(Cl)cc(-c2nc(-c3cnc4ccccn34)c(C)c(N(C)C3CCOCC3)n2)c1` (stereo not drawn) [Example 561-1a]: the IC50 was < 0.1 µM.

In the case of `CNCC(O)COc1cccc(-c2nc(N(C)C3CCOCC3)cc(N3C[C@H]4C[C@@H]3CN4)n2)c1` (stereo partly drawn) [Example 562-1a], the IC50 is < 0.1 µM.

On to `CNCC(O)COc1cccc(-c2nc(-c3cnc4n3CCNC4)cc(N(C)C3CCOCC3)n2)c1` (stereo not drawn) [Example 563-1a], for which the IC50 was < 0.1 µM.

Turning to `CNCC(O)COc1cccc(-c2nc(-c3cnc4ccnn4c3)cc(N(C)C3CCOCC3)n2)c1` (stereo not drawn) [Example 564-1a], the IC50 was < 0.1 µM.

`CCOC(=O)c1sc(-c2cc(N(C)C3CCOCC3)nc(-c3cccc(OCC(O)CNC)c3)n2)nc1C` (stereo not drawn) [Example 565-1a]: the IC50 is < 0.1 µM.

With `CNCC(O)COc1cccc(-c2nc(N3CC4CCC(C3)O4)cc(N(C)C3CCOCC3)n2)c1` (stereo not drawn) [Example 566-1a], the IC50 is < 0.1 µM.

As to `CNCC(O)COc1cccc(-c2nc(N(C)C3CCOCC3)c(C)c(N3CCNC[C@@H]3C)n2)c1` (stereo partly drawn) [Example 567-1a], the IC50 was < 0.1 µM.

As for `CNCC(O)COc1cccc(-c2nc(N(C)C3CCOCC3)cc(-n3nc(C)cc3C)n2)c1` (stereo not drawn) [Example 568-1a], the IC50 is < 0.1 µM.

Turning to `CNCC(O)COc1cccc(-c2nc(-c3sc(C)nc3C)cc(N(C)C3CCOCC3)n2)c1` (stereo not drawn) [Example 569-1a], the IC50 is < 0.1 µM.

As to `CNCC(O)COc1cccc(-c2nc(-c3cc4ccccc4o3)cc(N(C)C3CCOCC3)n2)c1` (stereo not drawn) [Example 570-1a], the IC50 is < 0.1 µM.

Consider `CNC[C@@H](O)COc1cccc(-c2nc(-c3c[nH]c4ncncc34)cc(N(C)C3CCOCC3)n2)c1` [Example 571-1a], for which the IC50 is < 0.1 µM.

For the molecule `CNCC(O)COc1cccc(-c2nc(-c3cnc(CO)n3C)cc(N(C)C3CCOCC3)n2)c1` (stereo not drawn) [Example 572-1a], the IC50 was < 0.1 µM.

In the case of `CNCC(O)COc1cccc(-c2nc(SC)cc(N(C)C3CCOCC3)n2)c1` (stereo not drawn) [Example 573-1a], the IC50 is < 0.1 µM.

In the case of `CNCC(O)COc1cc(Cl)cc(-c2nc(-c3ccncc3)c(C3CC3)c(N(C)C3CCOCC3)n2)c1` (stereo not drawn) [Example 574-1a], the IC50 is < 0.1 µM.
